Where two headings read alike, the source gives them in different places.
Columns and labels:
α2AR [1] = target: T1, α2AR (Homo sapiens, UniProt P08913); assay: Eurofins Cerep radioligand binding screen; set-up: Eurofins Cerep; host or cells: cell membrane homogenates; conditions: 10 μM; also previously reported
T1 sequence (P08913 1-465): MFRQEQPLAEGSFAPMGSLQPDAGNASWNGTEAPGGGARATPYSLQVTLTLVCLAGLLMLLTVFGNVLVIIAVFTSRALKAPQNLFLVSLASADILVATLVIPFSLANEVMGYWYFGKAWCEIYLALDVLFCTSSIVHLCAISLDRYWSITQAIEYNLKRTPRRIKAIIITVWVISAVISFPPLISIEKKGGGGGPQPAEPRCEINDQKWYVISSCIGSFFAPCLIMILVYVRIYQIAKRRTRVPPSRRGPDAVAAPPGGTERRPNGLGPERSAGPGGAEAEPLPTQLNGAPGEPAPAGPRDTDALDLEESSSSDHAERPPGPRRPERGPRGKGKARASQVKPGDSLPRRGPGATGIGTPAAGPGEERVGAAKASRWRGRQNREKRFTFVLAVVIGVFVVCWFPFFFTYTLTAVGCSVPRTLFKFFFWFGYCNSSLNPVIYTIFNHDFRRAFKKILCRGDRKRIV
Method: (§1) The compounds were screened at each target once, in duplicate, at 100 nM and 10 μM. […] The assay was valid if the reliability criteria, K i or IC50 values within 1/2 Log of historical values, were met. Radioligand binding assay methods were as previously described with only minor modifications , (see table in Supplementary Figure S4 for radioligands, protein sources, and assay test conditions). Briefly, cell membrane homogenates were incubated with either an antagonist or agonist radioligand in the absence or presence of the test compound in a buffer. A specific unlabeled agonist or antagonist at the target determined nonspecific binding. Following incubation, the samples were filtered rapidly under vacuum through glass fiber filters presoaked in a buffer and rinsed several times with an ice-cold buffer using a 48-sample or 96-sample cell harvester. Using a scintillation cocktail, the filters were counted for radioactivity in a scintillation counter. Compound binding was calculated as a percent inhibition of the binding of the radioactively labeled ligand specific for each target. Preparatory methods for enzyme inhibition assays were similar to radioligand binding assays. These assays involved using a known substrate, stimulus, and/or tracer, and detection methods included LANCE, fluorimetry, photometry, luminescence, or scintillation counting (see table in Supplementary Figure S4). Results of the screening assays showing an inhibition or stimulation higher than 50% were designated “hits” and considered to represent significant effects of the test compounds.

α1AR [2] = target: T2, α1AR (Homo sapiens, UniProt P35348); assay: Eurofins Cerep radioligand binding screen; set-up: Eurofins Cerep; host or cells: cell membrane homogenates; conditions: 10 μM
T2 sequence (P35348 1-466): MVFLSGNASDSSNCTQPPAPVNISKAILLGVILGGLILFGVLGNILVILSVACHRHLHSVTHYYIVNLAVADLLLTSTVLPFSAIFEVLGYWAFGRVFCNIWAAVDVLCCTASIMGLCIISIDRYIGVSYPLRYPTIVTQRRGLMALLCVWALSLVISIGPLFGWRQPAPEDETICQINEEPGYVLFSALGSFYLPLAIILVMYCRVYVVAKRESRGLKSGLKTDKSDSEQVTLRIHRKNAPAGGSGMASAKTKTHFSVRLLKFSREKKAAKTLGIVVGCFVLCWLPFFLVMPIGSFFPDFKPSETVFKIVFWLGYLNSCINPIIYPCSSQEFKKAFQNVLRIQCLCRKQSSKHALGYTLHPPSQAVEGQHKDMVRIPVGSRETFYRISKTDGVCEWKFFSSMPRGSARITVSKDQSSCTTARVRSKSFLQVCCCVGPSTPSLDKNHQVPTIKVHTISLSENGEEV
Method: as §1

any enzyme tested = assay: Eurofins Cerep enzyme inhibition screen, all enzymes tested; assay type: biochemical; conditions: 10 μM
Method: (§2) The compounds were screened at each target once, in duplicate, at 100 nM and 10 μM. […] The assay was valid if the reliability criteria, K i or IC50 values within 1/2 Log of historical values, were met. Radioligand binding assay methods were as previously described with only minor modifications , (see table in Supplementary Figure S4 for radioligands, protein sources, and assay test conditions). Briefly, cell membrane homogenates were incubated with either an antagonist or agonist radioligand in the absence or presence of the test compound in a buffer. A specific unlabeled agonist or antagonist at the target determined nonspecific binding. Following incubation, the samples were filtered rapidly under vacuum through glass fiber filters presoaked in a buffer and rinsed several times with an ice-cold buffer using a 48-sample or 96-sample cell harvester. Using a scintillation cocktail, the filters were counted for radioactivity in a scintillation counter. Compound binding was calculated as a percent inhibition of the binding of the radioactively labeled ligand specific for each target. Preparatory methods for enzyme inhibition assays were similar to radioligand binding assays. These assays involved using a known substrate, stimulus, and/or tracer, and detection methods included LANCE, fluorimetry, photometry, luminescence, or scintillation counting (see table in Supplementary Figure S4). […]

δ-opioid receptors = target: T3, δ-opioid receptors (Homo sapiens, UniProt P41143); assay: Eurofins Cerep radioligand binding screen; conditions: 10 μM
T3 construct: Eurofins Cerep; host or cells: cell membrane homogenates
T3 sequence (P41143 whole entry): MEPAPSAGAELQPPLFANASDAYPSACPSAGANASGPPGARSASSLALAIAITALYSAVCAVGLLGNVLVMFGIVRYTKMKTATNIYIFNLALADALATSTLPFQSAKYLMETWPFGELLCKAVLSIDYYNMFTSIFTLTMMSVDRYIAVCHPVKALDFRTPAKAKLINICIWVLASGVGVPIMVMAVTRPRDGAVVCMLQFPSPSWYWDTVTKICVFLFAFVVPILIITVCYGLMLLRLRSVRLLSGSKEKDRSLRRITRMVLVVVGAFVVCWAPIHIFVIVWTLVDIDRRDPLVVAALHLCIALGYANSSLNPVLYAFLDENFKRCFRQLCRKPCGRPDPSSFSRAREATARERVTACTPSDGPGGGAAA
Method: as §1

α2BR = target: T4, α2BR (Homo sapiens, UniProt P18089); assay: Eurofins Cerep radioligand binding screen; conditions: 10 μM; also previously reported
T4 construct: Eurofins Cerep; host or cells: cell membrane homogenates
T4 sequence (P18089 whole entry): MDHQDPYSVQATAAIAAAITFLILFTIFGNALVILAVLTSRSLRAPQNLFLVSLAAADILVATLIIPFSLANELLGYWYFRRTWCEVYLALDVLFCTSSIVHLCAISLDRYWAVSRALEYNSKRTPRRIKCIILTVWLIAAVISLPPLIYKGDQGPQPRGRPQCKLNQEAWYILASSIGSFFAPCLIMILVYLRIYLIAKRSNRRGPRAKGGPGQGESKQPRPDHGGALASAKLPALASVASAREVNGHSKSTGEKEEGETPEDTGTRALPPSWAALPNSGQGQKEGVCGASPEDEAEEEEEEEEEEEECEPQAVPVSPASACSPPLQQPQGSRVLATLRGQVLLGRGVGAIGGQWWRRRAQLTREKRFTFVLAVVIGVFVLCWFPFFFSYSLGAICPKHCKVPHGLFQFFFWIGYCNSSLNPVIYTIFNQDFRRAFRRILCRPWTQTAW
Method: as §1

α1DR = target: T5, α1DR (Homo sapiens, UniProt P25100); assay: Eurofins Cerep radioligand binding screen; conditions: 10 μM
T5 construct: Eurofins Cerep; host or cells: cell membrane homogenates
T5 sequence (P25100 whole entry): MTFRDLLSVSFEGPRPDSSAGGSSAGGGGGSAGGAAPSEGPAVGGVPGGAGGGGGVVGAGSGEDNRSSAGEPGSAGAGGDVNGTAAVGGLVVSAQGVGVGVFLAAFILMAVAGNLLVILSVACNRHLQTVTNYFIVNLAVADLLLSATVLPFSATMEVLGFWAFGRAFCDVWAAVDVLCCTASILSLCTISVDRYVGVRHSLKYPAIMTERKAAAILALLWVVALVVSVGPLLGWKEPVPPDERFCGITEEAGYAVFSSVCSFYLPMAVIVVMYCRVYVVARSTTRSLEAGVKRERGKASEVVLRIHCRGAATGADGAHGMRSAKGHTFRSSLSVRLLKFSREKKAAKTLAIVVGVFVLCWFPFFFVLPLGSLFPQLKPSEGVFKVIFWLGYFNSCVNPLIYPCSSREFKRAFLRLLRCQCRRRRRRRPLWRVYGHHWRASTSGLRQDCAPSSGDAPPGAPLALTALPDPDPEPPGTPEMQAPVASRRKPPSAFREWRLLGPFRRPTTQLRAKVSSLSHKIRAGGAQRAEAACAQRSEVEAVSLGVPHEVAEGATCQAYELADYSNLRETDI
Method: as §1

κ-opioid receptors = target: T6, κ-opioid receptors (Homo sapiens, UniProt P41145); assay: Eurofins Cerep radioligand binding screen; conditions: 10 μM
T6 construct: Eurofins Cerep; host or cells: cell membrane homogenates
T6 sequence (P41145 whole entry): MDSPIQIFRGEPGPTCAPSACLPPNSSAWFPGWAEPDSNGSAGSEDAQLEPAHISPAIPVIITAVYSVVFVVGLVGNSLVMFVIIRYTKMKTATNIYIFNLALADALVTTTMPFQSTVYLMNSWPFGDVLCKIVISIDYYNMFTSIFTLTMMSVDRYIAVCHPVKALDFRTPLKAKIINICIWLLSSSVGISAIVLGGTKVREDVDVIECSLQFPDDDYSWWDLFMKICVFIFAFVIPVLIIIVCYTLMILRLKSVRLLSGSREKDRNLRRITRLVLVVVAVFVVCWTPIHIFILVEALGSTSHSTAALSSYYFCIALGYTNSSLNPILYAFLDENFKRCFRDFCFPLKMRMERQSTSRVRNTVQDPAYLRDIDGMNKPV
Method: as §1

μ-opioid receptors = target: T7, μ-opioid receptors (Homo sapiens, UniProt P35372); assay: Eurofins Cerep radioligand binding screen; conditions: 10 μM
T7 construct: Eurofins Cerep; host or cells: cell membrane homogenates
T7 sequence (P35372 whole entry): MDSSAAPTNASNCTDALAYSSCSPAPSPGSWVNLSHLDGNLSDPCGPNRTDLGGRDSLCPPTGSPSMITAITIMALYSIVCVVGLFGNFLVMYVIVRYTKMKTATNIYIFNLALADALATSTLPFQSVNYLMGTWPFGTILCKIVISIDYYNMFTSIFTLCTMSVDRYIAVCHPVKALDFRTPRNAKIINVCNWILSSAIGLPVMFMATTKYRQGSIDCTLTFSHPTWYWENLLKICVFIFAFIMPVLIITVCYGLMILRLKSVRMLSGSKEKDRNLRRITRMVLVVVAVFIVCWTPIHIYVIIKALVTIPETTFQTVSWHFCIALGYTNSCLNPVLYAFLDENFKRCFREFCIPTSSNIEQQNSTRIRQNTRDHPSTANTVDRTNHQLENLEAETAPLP
Method: as §1

α1BR = target: T8, α1BR (Homo sapiens, UniProt P35368); assay: Eurofins Cerep radioligand binding screen; conditions: 10 μM
T8 construct: Eurofins Cerep; host or cells: cell membrane homogenates
T8 sequence (P35368 whole entry): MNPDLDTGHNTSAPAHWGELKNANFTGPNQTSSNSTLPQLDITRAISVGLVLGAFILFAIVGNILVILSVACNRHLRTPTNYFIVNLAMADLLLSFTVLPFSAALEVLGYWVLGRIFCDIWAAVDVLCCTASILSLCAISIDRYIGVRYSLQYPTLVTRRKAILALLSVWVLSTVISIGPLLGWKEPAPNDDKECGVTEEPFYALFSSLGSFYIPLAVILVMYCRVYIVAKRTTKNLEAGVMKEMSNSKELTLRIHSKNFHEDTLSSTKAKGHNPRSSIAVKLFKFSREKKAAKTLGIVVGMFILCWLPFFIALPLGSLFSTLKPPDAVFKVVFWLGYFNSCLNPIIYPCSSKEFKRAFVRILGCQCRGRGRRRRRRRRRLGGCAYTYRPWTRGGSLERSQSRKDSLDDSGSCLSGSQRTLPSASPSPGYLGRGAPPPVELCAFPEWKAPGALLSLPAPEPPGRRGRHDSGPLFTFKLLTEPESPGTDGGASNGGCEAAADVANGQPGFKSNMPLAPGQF
Method: as §1

human α2Rs = conditions: in vitro, literature, cited from earlier work
β1 and β2 adrenoceptors = conditions: in vitro; literature; read-out: Affinity (Kd) at β1 and β2 adrenoceptors; cited from earlier work
human α1Rs = conditions: in vitro, literature, cited from earlier work
α2AR [3] = target: T1, α2AR; conditions: α2AR-expressing CHO-K1 cells
α2AR [4] = target: T1, α2AR; assay: cell-based
[5] = test system: pERK in nontransfected HEK293 cells; assay: ERK phosphorylation in nontransfected, knockout and antagonist-cotreated HEK293 cells; assay type: cell-based, human; conditions: for pERK, nontransfected HEK293: concentration not given; for pERK-stimulating effect with 100 nM atipamezole cotreatment / pERK-stimulating effect with 100 nM prazosin cotreatment: HEK293; for pERK-stimulating effect with 100 nM prazosin cotreatment: CLON and ISO 1 μM, mitragynine 1 μM
Method: (§3) Cells were serum-starved for 75 min and treated with ligands in 1 mL of fresh DMEM in the absence of serum as described in the figure legends. Cells were washed three times with ice-cold phosphate-buffered saline, lysed on ice in Radio-Immunoprecipitation Assay buffer, centrifuged to clarify the supernatant, normalized to protein concentration, and boiled in Laemmli sample buffer. Following sodium dodecyl sulfate–polyacrylamide gel electrophoresis, gels were transferred, blocked in 5% BSA and incubated with 1:1000 rabbit phospho-ERK1/2 (#9101, Cell Signaling Technology, Danvers, MA) and imaged with enhanced chemiluminescence (ECL). Blots were stripped and reprobed with rabbit ERK1/2 (#9102, Cell Signaling Technology) antibody and imaged with ECL to assess protein loading.

COX2 = target: T9, COX2 (Homo sapiens, UniProt P35354); assay: Eurofins Cerep enzyme inhibition screen; assay type: biochemical; conditions: 10 μM
T9 construct: Eurofins Cerep
T9 sequence (P35354 18-604): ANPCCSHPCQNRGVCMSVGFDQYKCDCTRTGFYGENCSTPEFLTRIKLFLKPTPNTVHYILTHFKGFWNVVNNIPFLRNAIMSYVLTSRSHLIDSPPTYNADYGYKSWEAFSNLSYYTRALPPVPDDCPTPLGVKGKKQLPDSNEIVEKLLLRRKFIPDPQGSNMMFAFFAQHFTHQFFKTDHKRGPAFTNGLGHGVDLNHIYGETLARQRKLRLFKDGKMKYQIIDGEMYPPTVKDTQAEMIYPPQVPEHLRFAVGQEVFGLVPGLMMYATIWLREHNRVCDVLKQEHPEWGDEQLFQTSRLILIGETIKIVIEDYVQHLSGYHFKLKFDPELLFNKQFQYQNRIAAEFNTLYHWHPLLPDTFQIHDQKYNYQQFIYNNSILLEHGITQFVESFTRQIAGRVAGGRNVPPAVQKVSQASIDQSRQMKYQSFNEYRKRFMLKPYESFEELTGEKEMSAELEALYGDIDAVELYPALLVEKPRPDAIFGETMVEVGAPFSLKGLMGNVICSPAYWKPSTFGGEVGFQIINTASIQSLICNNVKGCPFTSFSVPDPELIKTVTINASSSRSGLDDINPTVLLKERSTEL
Method: as §2

serotonin transporter = target: T10, serotonin transporter (Homo sapiens, UniProt P31645); assay: Eurofins Cerep radioligand binding screen; conditions: 10 μM
T10 construct: Eurofins Cerep; host or cells: cell membrane homogenates
T10 sequence (P31645 whole entry): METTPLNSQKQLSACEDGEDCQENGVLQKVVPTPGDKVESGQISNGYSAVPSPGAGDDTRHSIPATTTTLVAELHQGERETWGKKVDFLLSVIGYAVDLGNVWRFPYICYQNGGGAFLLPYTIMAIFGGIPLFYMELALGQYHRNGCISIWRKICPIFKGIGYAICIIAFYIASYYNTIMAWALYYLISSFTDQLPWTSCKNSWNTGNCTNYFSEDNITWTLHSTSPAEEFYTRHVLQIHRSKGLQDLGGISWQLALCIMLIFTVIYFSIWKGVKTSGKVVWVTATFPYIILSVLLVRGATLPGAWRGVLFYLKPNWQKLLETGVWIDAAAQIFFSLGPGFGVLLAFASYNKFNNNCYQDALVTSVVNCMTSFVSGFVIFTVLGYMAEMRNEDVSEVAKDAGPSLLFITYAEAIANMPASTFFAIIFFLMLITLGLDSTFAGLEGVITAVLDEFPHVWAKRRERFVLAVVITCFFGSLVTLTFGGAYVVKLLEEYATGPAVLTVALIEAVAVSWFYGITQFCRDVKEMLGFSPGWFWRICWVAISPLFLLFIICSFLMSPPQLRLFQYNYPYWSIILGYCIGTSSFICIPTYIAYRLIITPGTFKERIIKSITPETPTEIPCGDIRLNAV
Method: as §1

[6] = test system: voltage-gated sodium channels; assay: Eurofins Cerep radioligand binding screen; conditions: 10 μM
Method: as §1

α1AR [7] = target: T2, α1AR; assay: cell-based
rat α2AR [8] = target: T11, rat α2AR (Rattus norvegicus, UniProt P22909); conditions: agonist mode; CHO-K1 cells
T11 sequence (P22909 1-465): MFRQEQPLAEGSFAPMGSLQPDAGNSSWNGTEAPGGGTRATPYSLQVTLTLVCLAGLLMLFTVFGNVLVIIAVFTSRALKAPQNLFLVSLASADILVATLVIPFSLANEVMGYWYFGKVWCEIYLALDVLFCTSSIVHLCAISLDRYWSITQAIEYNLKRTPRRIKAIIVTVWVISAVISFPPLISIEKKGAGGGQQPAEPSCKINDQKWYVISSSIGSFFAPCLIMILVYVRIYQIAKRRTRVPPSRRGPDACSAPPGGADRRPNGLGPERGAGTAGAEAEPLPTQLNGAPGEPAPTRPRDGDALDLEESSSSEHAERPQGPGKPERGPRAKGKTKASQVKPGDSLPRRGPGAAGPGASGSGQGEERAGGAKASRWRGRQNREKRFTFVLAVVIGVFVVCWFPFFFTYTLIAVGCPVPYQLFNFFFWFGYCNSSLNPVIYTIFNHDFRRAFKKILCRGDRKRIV

rat α2AR [9] = target: T11, rat α2AR; conditions: agonist mode; HEK293 cells; Figure S2
α2AR [10] = target: T1, α2AR; conditions: agonist mode; CHO-K1 cells
α1A and α1BR = conditions: read-out: EC50, α1A and α1BR-pERK; a recent report; cited from earlier work
α2AR [11] = target: T1, α2AR; conditions: data not shown
[12] = test system: pERK in HEK293 cells transfected with human α2ARs; assay: ERK phosphorylation in α2AR-transfected HEK293 cells; assay type: cell-based; conditions: 1 μM, 5 min
Method: as §3

[13] = HEK293, read-out: Emax as percent of clonidine's maximum response, α11
[14] = HEK293, read-out: Emax as percent of clonidine's maximum response, αq

## CC[C@@H]1CN2CC[C@@]3(O)C(=Nc4cccc(OC)c43)[C@@H]2C[C@@H]1/C(=C\OC)C(=O)OC [7-Hydroxymitragynine]
α2AR [1]
  Inhibition of specific radioligand binding, α2A: less than 15%
α1AR [2]
  Inhibition of specific radioligand binding, α1A: less than 15%
Any enzyme tested
  Inhibition of the activity of enzymes tested: did not inhibit the activity of any enzyme tested
δ-opioid receptors
  Inhibition of radioligand binding, δ-opioid receptors: more than 50%
α2BR
  Inhibition of specific radioligand binding, α2B: less than 15%
α1DR
  Inhibition of specific radioligand binding, α1D: less than 15%
κ-opioid receptors
  Inhibition of radioligand binding, κ-opioid receptors: more than 50%
μ-opioid receptors
  Inhibition of radioligand binding, μ-opioid receptors: more than 50%
α1BR
  Inhibition of specific radioligand binding, α1B: less than 15%

## COc1cc2nc(N3CCN(C(=O)c4ccco4)CC3)nc(N)c2cc1OC [Prazosin, prazosin]
Human α2Rs; read-out: Affinity (Kd) at each of the human α2Rs
  Kd: ≥ 0.3 µM
β1 and β2 adrenoceptors
  Kd: ≥ 8 µM
Human α1Rs
  Affinity (Kd) at each of the α1Rs: single-digit nM or higher affinity

## CCC1(c2cnc[nH]2)Cc2ccccc2C1 [atipamezole]
Human α2Rs
  Affinity (Kd) at each of the human α2Rs: double-digit nM
α2AR [3]
  β-arrestin2 recruitment, agonist mode: did not recruit β-arrestin2
α2AR [4]
  Kb: 0.00692 µM
β1 and β2 adrenoceptors
  Kd: > 30 µM
Human α1Rs; read-out: Affinity (Kd) at each of the α1Rs
  Kd: ≥ 1 µM

## Brc1c(NC2=NCCN2)ccc2nccnc12 [UK 14, 304 (brimonidine), brimonidine, reference compound]
[5]
  pERK, nontransfected HEK293: did not increase pERK
α2AR [3]
  β-arrestin2 recruitment, agonist mode: robust α2AR-β-arrestin2 recruitment

## CC[C@@H]1CN2CCc3c([nH]c4cccc(O)c34)[C@@H]2C[C@@H]1/C(=C\OC)C(=O)OC [9-Hydroxycorynantheidine]
α2AR [1]
  Inhibition of specific radioligand binding, α2A: less than 25%
α1AR [2]
  Inhibition of specific radioligand binding, α1A: more than 60%
COX2
  Inhibition of COX2: > 70%
Serotonin transporter
  Inhibition of radioligand binding, serotonin transporter: ~58%
α2BR
  Inhibition of specific radioligand binding, α2B: less than 25%
α1DR
  Inhibition of specific radioligand binding, α1D: more than 60%
[6]
  Inhibition of radioligand binding, voltage-gated sodium channels: ~57%

## CNC[C@H](O)c1cccc(O)c1 [phenylephrine]
[5]
  pERK, nontransfected HEK293: robust increases in pERK

## CNC[C@H](O)c1ccc(O)c(O)c1 [epinephrine]
α1AR [7]; [13]
  Emax: 279%

## Clc1cccc(Cl)c1N=C1NCCN1 [clonidine]
[5]; 1 μM, 5 min, vs CRISPR scrambled
  pERK-stimulating effect in Gαq/11 knockout HEK293 cells: abolished
[5]
  pERK-stimulating effect with 100 nM atipamezole cotreatment: did not affect
  pERK-stimulating effect with 100 nM prazosin cotreatment: abolished
Rat α2AR [8]
  Effect on forskolin-stimulated cAMP, rat α2AR: agonist
Rat α2AR [9]
  Effect on forskolin-induced cAMP, rat α2AR in HEK293: attenuated forskolin-induced cAMP production
α2AR [10]
  Effect on forskolin-stimulated cAMP, human α2AR: decreased forskolin-stimulated cAMP production
α1AR [7]; [13]
  Emax: 100%
α1AR [7]; [14]
  Emax: 100%
α1A and α1BR
  EC50: < 0.1 µM
α2AR [11]
  Activation of Gαq or Gα11 via α2ARs: no effect

## CC(C)NCC(O)c1ccc(O)c(O)c1 (stereo not shown) [isoproterenol]
[5]; 1 μM, 5 min
  pERK relative to buffer, nontransfected HEK293: stimulated pERK
[5]
  pERK-stimulating effect with 100 nM atipamezole cotreatment: not affected
  pERK-stimulating effect with 100 nM prazosin cotreatment: not affected
[12]
  pERK relative to buffer, α2AR-transfected HEK293: significantly increased pERK

## CC(Oc1c(Cl)cccc1Cl)C1=NCCN1 (stereo not shown) [lofexidine]
α1AR [7]; EC50, α11, α1AR-Gα11
  EC50: 0.112 µM
α1AR [7]; EC50, αq, α1AR-Gαq
  EC50: 0.0955 µM
α1AR [7]; [13]
  Emax: 76%
α1AR [7]; [14]
  Emax: 84%
